Assays:
[1] = target: T1, F876L mutant Androgen Receptor (AR-F876L) (Homo sapiens (Human), UniProt P10275, F877L); test: LNCaP-AR-F876L ANT reporter assay (antagonist mode); assay type: cell-based; conditions: for IC50: pIC50 = −Log10(IC50 in Molar), read-out: LNCaP-AR-F876L ANT pIC50 (converted); for Emax: read-out: LNCaP-AR-F876L ANT MAX % Inh
[2] = target: T2, wild-type Androgen Receptor (AR-wt) (Homo sapiens (Human), UniProt P10275); test: LNCaP-AR-wt ANT reporter assay (antagonist mode); assay type: cell-based; conditions: for IC50: pIC50 = −Log10(IC50 in Molar), read-out: LNCaP-AR-wt ANT pIC50 (converted); for Emax: read-out: LNCaP-AR-wt ANT MAX % Inh
T2 sequence (P10275 whole entry): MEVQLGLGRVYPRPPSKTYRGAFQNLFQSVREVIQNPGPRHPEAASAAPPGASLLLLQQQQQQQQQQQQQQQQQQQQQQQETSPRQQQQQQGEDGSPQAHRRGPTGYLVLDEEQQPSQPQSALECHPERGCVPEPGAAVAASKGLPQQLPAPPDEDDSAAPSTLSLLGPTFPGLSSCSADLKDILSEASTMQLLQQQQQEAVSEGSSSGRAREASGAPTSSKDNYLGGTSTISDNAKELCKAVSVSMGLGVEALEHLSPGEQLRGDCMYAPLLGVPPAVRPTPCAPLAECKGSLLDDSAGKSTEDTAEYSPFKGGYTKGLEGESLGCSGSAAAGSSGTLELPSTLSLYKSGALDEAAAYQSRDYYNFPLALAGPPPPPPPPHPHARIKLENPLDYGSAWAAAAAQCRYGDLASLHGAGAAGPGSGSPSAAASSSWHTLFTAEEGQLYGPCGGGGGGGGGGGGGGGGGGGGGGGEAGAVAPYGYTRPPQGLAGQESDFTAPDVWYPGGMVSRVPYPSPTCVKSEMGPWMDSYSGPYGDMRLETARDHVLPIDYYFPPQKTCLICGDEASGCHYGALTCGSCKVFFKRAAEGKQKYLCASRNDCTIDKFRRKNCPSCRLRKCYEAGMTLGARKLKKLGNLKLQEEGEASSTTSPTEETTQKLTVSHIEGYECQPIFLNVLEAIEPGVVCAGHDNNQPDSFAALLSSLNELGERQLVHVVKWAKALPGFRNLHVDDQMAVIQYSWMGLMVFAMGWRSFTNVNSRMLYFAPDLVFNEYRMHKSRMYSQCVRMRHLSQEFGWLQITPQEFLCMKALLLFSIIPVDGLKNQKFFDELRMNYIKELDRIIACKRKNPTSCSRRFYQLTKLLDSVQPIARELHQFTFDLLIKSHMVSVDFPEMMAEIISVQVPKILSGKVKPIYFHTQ

[3] = target: T2, wild-type Androgen Receptor (AR-wt); test: LNCaP-AR-wt AG reporter assay (agonist mode); assay type: cell-based; conditions: for EC50: pEC50 = −Log10(EC50 in Molar), read-out: LNCaP-AR-wt AG pEC50 (converted); for Emax: read-out: LNCaP-AR-wt AG MAX % Stim
rGABA-gated Cl− channel = test: GABA-Gated Cl Channel Antagonist Radioligand Binding Assay; design: species or system rat; conditions: 10 μM single point, [35S]-TBPS, cerebral cortex membrane homogenates
Summary of the method: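 Rat cerebral cortex membranes (120 μg protein) incubated 120 min at 22° C with 3 nM […] in 50 mM Na2HPO4/KH2PO4 pH 7.4, 500 mM NaCl; nonspecific binding defined with 20 μM picrotoxinin. Bound label counted after filtration; values are percent inhibition of specific binding at 10 μM compound.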

[4] = target: T1, F876L mutant Androgen Receptor (AR-F876L); test: LNCaP-AR-F876L AG reporter assay (agonist mode); assay type: cell-based; conditions: for EC50: pEC50 = −Log10(EC50 in Molar), read-out: LNCaP-AR-F876L AG pEC50 (converted); for Emax: read-out: LNCaP-AR-F876L AG MAX % Stim
[5] = maximum % inhibition of R1881 control response over the tested concentration range
[6] = maximum % stimulation (agonist response) over the tested concentration range
[7] = antagonist mode, maximum % inhibition of R1881 control response over tested concentration range
[8] = agonist mode, maximum % stimulation over tested concentration range

T1 sequence (P10275 whole entry F877L): as the sequence (P10275 whole entry) above, with F877L counted along it

SMILES	IC50 ([1]; antagonist mode) [nM]	Emax [1, 5] [%]	IC50 ([2]; antagonist mode) [nM]	Emax [2, 5] [%]	EC50 ([3]; agonist mode) [nM]	Emax [3, 6] [%]	rGABA-gated Cl− channel % inh @10 μM (rGABA-gated Cl− channel) [%]	EC50 ([4]; agonist mode) [nM]	Emax [4, 6] [%]	Emax [1, 7] [%]	Emax [2, 7] [%]	Emax [3, 8] [%]	Emax [4, 8] [%]
COc1cc(N2C(=O)C3(CCC3)N(c3ccc(OC4CCNCC4)cc3)C2=S)cnc1C#N [Cpd 154, 3-methoxy-5-[5-oxo-8-[4-(4-piperidyloxy)phenyl]-7-thioxo-6,8-diazaspiro[3.4]octan-6-yl]pyridine-2-carbonitrile]	269	100	468	102	> 15100	-0.1	−22.2	> 15100	-0.1				
N#Cc1ncc(N2C(=O)C3(CCC3)N(c3ccc4nn(CCO)cc4c3)C2=S)cc1C(F)(F)F [Cpd 161, 5-[8-[2-(2-hydroxyethyl)indazol-5-yl]-5-oxo-7-thioxo-6,8-diazaspiro[3.4]octan-6-yl]-3-(trifluoromethyl)pyridine-2-carbonitrile]	468	99.3	1050	97.2	> 15100	0.2	77.9	> 15100	0.3				
N#Cc1ncc(N2C(=O)C3(CCC3)N(c3ccc4nn(CCO)cc4c3)C2=S)cc1Cl [Cpd 162, 3-chloro-5-[8-[2-(2-hydroxyethyl)indazol-5-yl]-5-oxo-7-thioxo-6,8-diazaspiro[3.4]octan-6-yl]pyridine-2-carbonitrile]	158	99.2	324	96.4	> 15100	-0.1	48.5	> 15100	0				
COCCn1cc2cc(N3C(=S)N(c4cnc(C#N)c(Cl)c4)C(=O)C34CCC4)ccc2n1 [Cpd 169, 3-chloro-5-[8-[2-(2-methoxyethyl)indazol-5-yl]-5-oxo-7-thioxo-6,8-diazaspiro[3.4]octan-6-yl]pyridine-2-carbonitrile]	112	100	186	99.6	> 15100	0.2	80.8	> 15100	0.2				
COCCn1cc2cc(N3C(=S)N(c4cnc(C#N)c(C(F)(F)F)c4)C(=O)C34CCC4)ccc2n1 [Cpd 172, 5-[8-[2-(2-methoxyethyl)indazol-5-yl]-5-oxo-7-thioxo-6,8-diazaspiro[3.4]octan-6-yl]-3-(trifluoromethyl)pyridine-2-carbonitrile]	174	100	339	99.2	> 15100	0.2	94.9	> 15100	-0.1				
Cn1cc2cc(N3C(=S)N(c4cnc(C#N)c(C(F)(F)F)c4)C(=O)C34CCC4)ccc2n1 [Cpd 174, 5-[8-(2-methylindazol-5-yl)-5-oxo-7-thioxo-6,8-diazaspiro[3.4]octan-6-yl]-3-(trifluoromethyl)pyridine-2-carbonitrile]	219	101	407	102	> 15100	0	94.9	> 15100	0.1				
COCCn1cc2cc(N3C(=S)N(c4cnc(C#N)c(OC)c4)C(=O)C34CCC4)ccc2n1 [Cpd 175, 3-methoxy-5-[8-[2-(2-methoxyethyl)indazol-5-yl]-5-oxo-7-thioxo-6,8-diazaspiro[3.4]octan-6-yl]pyridine-2-carbonitrile]	141	101	269	101	> 15100	0.1	25.6	> 15100	0				
N#Cc1ncc(N2C(=O)C3(CCC3)N(c3ccc4nn(C5CCNCC5)cc4c3)C2=S)cc1Cl [Cpd 180, 3-chloro-5-[5-oxo-8-[2-(4-piperidyl)indazol-5-yl]-7-thioxo-6,8-diazaspiro[3.4]octan-6-yl]pyridine-2-carbonitrile]	97.7	104	219	106	> 15100	0.2	36.7	> 15100	0.2				
CN1CCC(n2ncc3cc(N4C(=S)N(c5cnc(C#N)c(Cl)c5)C(=O)C45CCC5)ccc32)CC1 [Cpd 183, 3-chloro-5-[8-[1-(1-methyl-4-piperidyl)indazol-5-yl]-5-oxo-7-thioxo-6,8-diazaspiro[3.4]octan-6-yl]pyridine-2-carbonitrile]	275	101	513	100	> 15100	0.3	37.9	> 15100	-0.1				
C[N@+]1([O-])CC[C@@H](Oc2ccc(N3C(=S)N(c4cnc(C#N)c(C(F)(F)F)c4)C(=O)C34CCC4)cc2)CC1 [Cpd 191, 5-[8-[4-(1-methyl-1-oxido-piperidin-1-ium-4-yl)oxyphenyl]-5-oxo-7-thioxo-6,8-diazaspiro[3.4]octan-6-yl]-3-(trifluoromethyl)pyridine-2-carbonitrile]	1120		1380		> 15100		47.9	> 15100		99.8	99.4	-0.2	0
N#Cc1ncc(N2C(=O)C3(CCC3)N(c3ccc(CN4CCNCC4)cc3)C2=S)cc1Cl [Cpd 207, 3-chloro-5-[5-oxo-8-[4-(piperazin-1-ylmethyl)phenyl]-7-thioxo-6,8-diazaspiro[3.4]octan-6-yl]pyridine-2-carbonitrile]	380		407		> 15100		27.9	> 15100		100	101	0	0
COc1cc(N2C(=O)C3(CCC3)N(c3ccc4c(cnn4C4CCN(CCO)CC4)c3)C2=S)cnc1C#N [Cpd 225, 5-[8-[1-[1-(2-hydroxyethyl)-4-piperidyl]indazol-5-yl]-5-oxo-7-thioxo-6,8-diazaspiro[3.4]octan-6-yl]-3-methoxy-pyridine-2-carbonitrile]	209		339		> 15100		18.6	> 15100		100	101	0.4	0.5
N#Cc1ncc(N2C(=O)C3(CCC3)N(c3ccc(CC4CCC(N)CC4)cc3)C2=S)cc1C(F)(F)F (stereo not drawn) [Cpd 233, 5-[8-[4-[(4-aminocyclohexyl)methyl]phenyl]-5-oxo-7-thioxo-6,8-diazaspiro[3.4]octan-6-yl]-3-(trifluoromethyl)pyridine-2-carbonitrile]	186		240		> 15100		80.2	> 15100		103	108	-0.2	0
N#Cc1ncc(N2C(=O)C3(CCC3)N(c3ccc(CC4CCNCC4)cc3)C2=S)cc1C(F)(F)F [Cpd 234, 5-[5-oxo-8-[4-(4-piperidylmethyl)phenyl]-7-thioxo-6,8-diazaspiro[3.4]octan-6-yl]-3-(trifluoromethyl)pyridine-2-carbonitrile]	257		479		> 15100		57.4	> 15100		102	100	0.1	0
N#Cc1ncc(N2C(=O)C3(CCC3)N(c3ccc(SC4CCNCC4)cc3)C2=S)cc1C(F)(F)F [Cpd 240, 5-[5-oxo-8-[4-(4-piperidylsulfanyl)phenyl]-7-thioxo-6,8-diazaspiro[3.4]octan-6-yl]-3-(trifluoromethyl)pyridine-2-carbonitrile]	224		457		> 15100		44.7	> 15100		105	106	1	0

Source: patent US10981926B2 (Janssen Pharmaceutica NV, priority 2016, dated 2021)
